Test results taken from patent US11111251B2, “Positive allosteric modulators of the muscarinic acetylcholine receptor M1” (Vanderbilt University, priority 2016, dated 2021).

Target: T1, human mAChR M1 (Homo sapiens, UniProt P11229)
T1 sequence (P11229 1-460): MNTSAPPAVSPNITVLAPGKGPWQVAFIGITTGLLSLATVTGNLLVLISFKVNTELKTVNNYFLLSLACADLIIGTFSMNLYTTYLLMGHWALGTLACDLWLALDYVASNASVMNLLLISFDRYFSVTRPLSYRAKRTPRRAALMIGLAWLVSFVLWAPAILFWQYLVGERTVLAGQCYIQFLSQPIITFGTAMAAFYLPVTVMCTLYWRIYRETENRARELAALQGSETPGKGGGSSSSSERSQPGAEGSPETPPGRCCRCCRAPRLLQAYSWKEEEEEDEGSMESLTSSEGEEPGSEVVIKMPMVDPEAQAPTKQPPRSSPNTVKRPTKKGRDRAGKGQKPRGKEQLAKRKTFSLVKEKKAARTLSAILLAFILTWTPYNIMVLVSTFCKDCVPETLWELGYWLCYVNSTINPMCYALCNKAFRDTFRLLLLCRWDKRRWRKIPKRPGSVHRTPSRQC
Assay: mAChR M1 cell-based functional assay: calcium mobilization, positive allosteric modulator mode (increase in EC20 acetylcholine response)
Details: Table 2, human M1; for EC50: read-out: Human M1 EC50; for Emax: read-out: Human M1 Emax (%)
Summary of the method: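 Calcium-flux assay in CHO-K1 cells stably expressing human M1, loaded with Fluo-4 AM (50 min, 37 °C) and read at 1 Hz. Compound (11-point, 1:3 series) was added at 4 s, EC20 acetylcholine at 144 s and EC80 at 230 s. PAM activity is the concentration-dependent rise in the EC20 response, fitted with a four-parameter logistic.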

Structure (SMILES) | EC50 [nM] | Emax [%]
Cc1cc2nc(C(=O)N[C@H]3CCC[C@@H]3O)cc(Cc3ccc(-n4cccn4)cc3)c2s1 [Compound 236, N-[(1S,2S)-2-hydroxycyclopentyl]-2-methyl-7-[(4-pyrazol-1-ylphenyl)methyl]thieno[3,2-b]pyridine-5-carboxamide] | 2680 | 78.2
Cc1cc2nc(C(=O)N[C@H]3CCCC[C@@H]3O)cc(Cc3ccc(-n4cccn4)cc3)c2s1 [Compound 237, N-[(1S,2S)-2-hydroxycyclohexyl]-2-methyl-7-[(4-pyrazol-1-ylphenyl)methyl]thieno[3,2-b]pyridine-5-carboxamide] | 455 | 85.2
Cc1cc2nc(C(=O)N[C@H]3CCOC[C@@H]3O)cc(Cc3ccc(-n4cccn4)cc3)c2s1 [Compound 238, N-[(3R,4S)-3-hydroxytetrahydropyran-4-yl]-2-methyl-7-[(4-pyrazol-1-ylphenyl)methyl]thieno[3,2-b]pyridine-5-carboxamide] | 108 | 84.7
Cc1cc2nc(C(=O)NC3CCOCC3)cc(Cc3ccc(-n4cccn4)cc3)c2s1 [Compound 239, 2-methyl-7-[(4-pyrazol-1-ylphenyl)methyl]-N-tetrahydropyran-4-yl-thieno[3,2-b]pyridine-5-carboxamide] | 3080 | 81.5
Cc1nn(C)c(C)c1-c1ccc(Cc2cc(C(=O)N[C@@H]3CC[C@H]3O)nc3ccsc23)cc1 [Compound 240, N-[(1R,2R)-2-hydroxycyclobutyl]-7-[[4-(1,3,5-trimethylpyrazol-4-yl)phenyl]methyl]thieno[3,2-b]pyridine-5-carboxamide] | > 10000 | 19.9
Cc1nn(C)c(C)c1-c1ccc(Cc2cc(C(=O)NC3CC4(COC4)C3)nc3ccsc23)cc1 [Compound 241, N-(2-oxaspiro[3.3]heptan-6-yl)-7-[[4-(1,3,5-trimethylpyrazol-4-yl)phenyl]methyl]thieno[3,2-b]pyridine-5-carboxamide] | > 10000 | 18.8
Cc1nn(C)c(C)c1-c1ccc(Cc2cc(C(=O)N[C@H]3CCC[C@@H]3O)nc3ccsc23)cc1 [Compound 242] | > 10000 | 17.8
Cc1nn(C)c(C)c1-c1ccc(Cc2cc(C(=O)NC3CCOCC3)nc3ccsc23)cc1 [Compound 243, N-tetrahydropyran-4-yl-7-[[4-(1,3,5-trimethylpyrazol-4-yl)phenyl]methyl]thieno[3,2-b]pyridine-5-carboxamide] | > 10000 | 17.9
Cc1nn(C)cc1-c1ccc(Cc2cc(C(=O)NC3COC3)nc3ccsc23)cc1 [Compound 244, 7-[[4-(1,3-dimethylpyrazol-4-yl)phenyl]methyl]-N-(oxetan-3-yl)thieno[3,2-b]pyridine-5-carboxamide] | 187 | 15
Cc1nn(C)cc1-c1ccc(Cc2cc(C(=O)NC3CN(C(C)(C)C)C3)nc3ccsc23)cc1 [Compound 245, N-(1-tert-butylazetidin-3-yl)-7-[[4-(1,3-dimethylpyrazol-4-yl)phenyl]methyl]thieno[3,2-b]pyridine-5-carboxamide] | > 10000 | 16.2
COC1CC(NC(=O)c2cc(Cc3ccc(-c4cn(C)nc4C)cc3)c3sccc3n2)C1 (stereo not drawn) [Compound 246, 7-[[4-(1,3-dimethylpyrazol-4-yl)phenyl]methyl]-N-(3-methoxycyclobutyl)thieno[3,2-b]pyridine-5-carboxamide] | > 10000 | 16
Cc1nn(C)cc1-c1ccc(Cc2cc(C(=O)N[C@H]3CCC[C@@H]3O)nc3ccsc23)cc1 [Compound 247, 7-[[4-(1,3-dimethylpyrazol-4-yl)phenyl]methyl]-N-[(1S,2S)-2-hydroxycyclopentyl]thieno[3,2-b]pyridine-5-carboxamide] | 4060 | 30.6
Cc1nn(C)cc1-c1ccc(Cc2cc(C(=O)N[C@H]3CCOC[C@@H]3O)nc3ccsc23)cc1 [Compound 248, 7-[[4-(1,3-dimethylpyrazol-4-yl)phenyl]methyl]-N-[(3R,4S)-3-hydroxytetrahydropyran-4-yl]thieno[3,2-b]pyridine-5-carboxamide] | 4880 | 71.3
Cc1nn(C)cc1-c1ccc(Cc2cc(C(=O)N[C@H]3COCC[C@@H]3O)nc3ccsc23)cc1 [Compound 249, 7-[[4-(1,3-dimethylpyrazol-4-yl)phenyl]methyl]-N-[(3S,4S)-4-hydroxytetrahydropyran-3-yl]thieno[3,2-b]pyridine-5-carboxamide] | > 10000 | 42.1
Cc1nn(C)cc1-c1ccc(Cc2cc(C(=O)N[C@H]3CCCC[C@@H]3O)nc3ccsc23)cc1 [Compound 250] | > 10000 | 48.1
Cn1ccc(-c2ccc(Cc3cc(C(=O)N[C@@H]4CC[C@H]4O)nc4ccsc34)cc2)n1 [Compound 251, N-[(1R,2R)-2-hydroxycyclobutyl]-7-[[4-(1-methylpyrazol-3-yl)phenyl]methyl]thieno[3,2-b]pyridine-5-carboxamide] | 234 | 70.3
Cn1ccc(-c2ccc(Cc3cc(C(=O)NC4CC5(COC5)C4)nc4ccsc34)cc2)n1 [Compound 252, 7-[[4-(1-methylpyrazol-3-yl)phenyl]methyl]-N-(2-oxaspiro[3.3]heptan-6-yl)thieno[3,2-b]pyridine-5-carboxamide] | 258 | 78.4
Cn1ccc(-c2ccc(Cc3cc(C(=O)N[C@H]4CCC[C@@H]4O)nc4ccsc34)cc2)n1 [Compound 253, N-[(1S,2S)-2-hydroxycyclopentyl]-7-[[4-(1-methylpyrazol-3-yl)phenyl]methyl]thieno[3,2-b]pyridine-5-carboxamide] | 144 | 74.5
Cn1ccc(-c2ccc(Cc3cc(C(=O)NC4CCOCC4)nc4ccsc34)cc2)n1 [Compound 254, 7-[[4-(1-methylpyrazol-3-yl)phenyl]methyl]-N-tetrahydropyran-4-yl-thieno[3,2-b]pyridine-5-carboxamide] | 142 | 71.6
Cn1ccc(-c2ccc(Cc3cc(C(=O)N[C@H]4CCOC[C@@H]4O)nc4ccsc34)cc2)n1 [Compound 255, N-[(3R,4S)-3-hydroxytetrahydropyran-4-yl]-7-[[4-(1-methylpyrazol-3-yl)phenyl]methyl]thieno[3,2-b]pyridine-5-carboxamide] | 5.76 | 47
Cn1ccc(-c2ccc(Cc3cc(C(=O)N[C@H]4CCCC[C@@H]4O)nc4ccsc34)cc2)n1 [Compound 256, N-[(1S,2S)-2-hydroxycyclohexyl]-7-[[4-(1-methylpyrazol-3-yl)phenyl]methyl]thieno[3,2-b]pyridine-5-carboxamide] | 57.6 | 50
Cc1ccc(Cc2cc(C(=O)NC3(C#N)CC3)nc3ccsc23)cn1 [Compound 257, N-(1-cyanocyclopropyl)-7-[(6-methyl-3-pyridyl)methyl]thieno[3,2-b]pyridine-5-carboxamide] | > 10000 | 26.4
Cc1ccc(Cc2cc(C(=O)NC3COC3)nc3ccsc23)cn1 [Compound 258, 7-[(6-methyl-3-pyridyl)methyl]-N-(oxetan-3-yl)thieno[3,2-b]pyridine-5-carboxamide] | > 10000 | 27.5
Cc1ccc(Cc2cc(C(=O)NC3CC(F)C3)nc3ccsc23)cn1 (stereo not drawn) [Compound 259, N-(3-fluorocyclobutyl)-7-[(6-methyl-3-pyridyl)methyl]thieno[3,2-b]pyridine-5-carboxamide] | > 10000 | 56.2
